Measurements reported in US9556199B2, “Thieno[3,2-d]pyrimidines derivatives for the treatment of viral infections” (Janssen Sciences Ireland UC, priority 2013, dated 2017).

Columns and labels:
Assay type in all cases: cell-based
human TLR8 = molecular target: T1, human TLR8 (Homo sapiens, UniProt Q9NR97); experiment: TLR8 cellular NFκB-luc reporter assay in transiently transfected HEK293 cells; conditions: lowest effective concentration, 6 hours incubation
T1 construct: expressed in transfected cells; host or cells: HEK293
T1 sequence (Q9NR97 27-1041): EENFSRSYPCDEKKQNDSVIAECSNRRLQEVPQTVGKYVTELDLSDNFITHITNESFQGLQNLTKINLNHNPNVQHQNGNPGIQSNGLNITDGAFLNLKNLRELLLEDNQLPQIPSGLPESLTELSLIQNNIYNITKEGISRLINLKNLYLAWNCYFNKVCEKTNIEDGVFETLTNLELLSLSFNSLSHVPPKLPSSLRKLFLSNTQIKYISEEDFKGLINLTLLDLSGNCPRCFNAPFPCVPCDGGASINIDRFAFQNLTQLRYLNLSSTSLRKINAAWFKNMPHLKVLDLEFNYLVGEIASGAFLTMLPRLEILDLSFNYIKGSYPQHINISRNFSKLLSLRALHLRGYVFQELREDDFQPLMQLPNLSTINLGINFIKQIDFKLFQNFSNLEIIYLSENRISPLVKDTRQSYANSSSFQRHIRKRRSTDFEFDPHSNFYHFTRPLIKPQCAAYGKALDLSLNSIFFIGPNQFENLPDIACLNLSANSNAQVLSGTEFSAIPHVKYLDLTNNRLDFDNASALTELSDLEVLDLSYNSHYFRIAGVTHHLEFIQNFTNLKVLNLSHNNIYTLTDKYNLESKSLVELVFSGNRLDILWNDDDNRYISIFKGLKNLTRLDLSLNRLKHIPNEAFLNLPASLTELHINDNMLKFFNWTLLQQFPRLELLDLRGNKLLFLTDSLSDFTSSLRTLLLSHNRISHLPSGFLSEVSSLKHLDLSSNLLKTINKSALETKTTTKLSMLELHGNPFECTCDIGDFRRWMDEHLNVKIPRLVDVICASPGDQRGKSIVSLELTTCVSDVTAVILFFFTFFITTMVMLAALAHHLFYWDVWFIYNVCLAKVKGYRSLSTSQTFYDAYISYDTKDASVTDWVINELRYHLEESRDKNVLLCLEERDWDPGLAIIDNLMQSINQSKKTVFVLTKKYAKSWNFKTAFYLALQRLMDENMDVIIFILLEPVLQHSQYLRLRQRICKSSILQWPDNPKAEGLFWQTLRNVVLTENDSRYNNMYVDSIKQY
Protocol: (§1) The ability of compounds to activate human TLR7 and/or TLR8 was assessed in a cellular reporter assay using HEK293 cells transiently transfected with a TLR7 or TLR8 expression vector and NFκB-luc reporter construct.
(§2) Briefly, HEK293 cells were grown in culture medium (DMEM supplemented with 10% FCS and 2 mM Glutamine). For transfection of cells in 15 cm dishes, cells were detached with Trypsin-EDTA, transfected with a mix of CMV-TLR7 or TLR8 plasmid (1700 ng), NFκB-luc plasmid (850 ng) and a transfection reagent and incubated for 48 h at 37° C. in a humidified 5% CO2 atmosphere. Transfected cells were then washed in PBS, detached with Trypsin-EDTA and resuspended in medium to a density of 1.25×10^5 cells/mL. Forty microliters of cells were then dispensed into each well in 384-well plates, where 200 nL of compound in 100% DMSO was already present. Following 6 hours incubation at 37° C., 5% CO2, the luciferase activity was determined by adding 15 μL of Steady Lite Plus substrate (Perkin Elmer) to each well and readout performed on a ViewLux ultraHTS microplate imager (Perkin Elmer). Dose response curves were generated from measurements performed in quadruplicates. Lowest effective concentrations (LEC) values, defined as the concentration that induces an effect which is at least two fold above the standard deviation of the assay, were determined for each compound.

human TLR7 = molecular target: T2, human TLR7 (Homo sapiens, UniProt Q9NYK1); experiment: TLR7 cellular NFκB-luc reporter assay in transiently transfected HEK293 cells; conditions: lowest effective concentration, 6 hours incubation
T2 construct: expressed in transfected cells; host or cells: HEK293
T2 sequence (Q9NYK1 27-1049): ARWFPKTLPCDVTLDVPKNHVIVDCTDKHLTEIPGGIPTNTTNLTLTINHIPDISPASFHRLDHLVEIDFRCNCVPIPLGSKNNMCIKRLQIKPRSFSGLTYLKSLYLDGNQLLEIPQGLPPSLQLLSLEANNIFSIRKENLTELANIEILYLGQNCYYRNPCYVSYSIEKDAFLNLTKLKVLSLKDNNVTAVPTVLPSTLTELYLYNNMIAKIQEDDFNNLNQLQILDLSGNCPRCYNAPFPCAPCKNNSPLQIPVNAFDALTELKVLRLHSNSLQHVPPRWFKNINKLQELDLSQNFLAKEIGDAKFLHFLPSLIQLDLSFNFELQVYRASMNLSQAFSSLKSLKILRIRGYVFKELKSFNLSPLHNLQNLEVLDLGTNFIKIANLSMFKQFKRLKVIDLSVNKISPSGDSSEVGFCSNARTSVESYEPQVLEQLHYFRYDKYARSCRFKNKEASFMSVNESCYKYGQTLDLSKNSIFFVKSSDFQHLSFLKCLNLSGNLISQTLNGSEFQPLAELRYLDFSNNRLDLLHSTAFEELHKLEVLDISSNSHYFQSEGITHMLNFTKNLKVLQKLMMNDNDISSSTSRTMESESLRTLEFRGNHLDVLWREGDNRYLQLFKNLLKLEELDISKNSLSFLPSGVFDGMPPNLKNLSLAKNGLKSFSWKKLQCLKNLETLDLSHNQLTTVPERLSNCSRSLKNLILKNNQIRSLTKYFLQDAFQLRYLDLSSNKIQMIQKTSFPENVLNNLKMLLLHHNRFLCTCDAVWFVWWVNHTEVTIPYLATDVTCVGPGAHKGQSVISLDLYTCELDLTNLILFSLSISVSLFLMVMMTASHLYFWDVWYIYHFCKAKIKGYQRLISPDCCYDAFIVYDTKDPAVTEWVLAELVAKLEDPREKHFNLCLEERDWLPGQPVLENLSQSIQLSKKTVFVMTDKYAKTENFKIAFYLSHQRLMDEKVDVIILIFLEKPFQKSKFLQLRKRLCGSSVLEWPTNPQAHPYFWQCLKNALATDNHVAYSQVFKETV
Protocol: as §1, §2

[1] = test system: interferon-stimulated responsive elements (ISRE); experiment: Activation of ISRE promoter elements in HEK-ISREluc cells by conditioned media from compound-treated PBMC; conditions: lowest effective concentration applied to PBMCs, supernatant transferred to HEK-ISREluc cells, 24 hours, read-out: HEK-ISRE luc (LEC)
Protocol: The potential of compounds to induce IFN-I was also evaluated by measuring the activation of interferon-stimulated responsive elements (ISRE) by conditioned media from PBMC. The ISRE element of sequence GAAACTGAAACT (SEQ ID NO: 1) is highly responsive to the STAT1-STAT2-IRF9 transcription factor, activated upon binding of IFN-I to their receptor IFNAR (Clontech, PT3372-5W). The plasmid pISRE-Luc from Clontech (ref. 631913) contains 5 copies of this ISRE element, followed by the firefly luciferase ORF. A HEK293 cell line stably transfected with pISRE-Luc (HEK-ISREluc) was established to profile the conditioned PBMC cell culture media.
Briefly, PBMCs were prepared from buffy coats of at least two donors using a standard Ficoll centrifugation protocol. Isolated PBMCs were resuspended in RPMI medium supplemented with 10% human AB serum and 2×10^5 cells/well were dispensed into 384-well plates containing compounds (70 μL total volume). After overnight incubation, 10 μL of supernatant was transferred to 384-well plates containing 5×10^3 HEK-ISREIuc cells/well in 30 μL (plated the day before). Following 24 hours of incubation, activation of the ISRE elements was measured by assaying luciferase activity using 40 μL/well Steady Lite Plus substrate (Perkin Elmer) and measured with ViewLux ultraHTS microplate imager (Perkin Elmer). The stimulating activity of each compound on the HEK-ISREluc cells was reported as LEC value, defined as the compound concentration applied to the PBMCs resulting in a luciferase activity at least two fold above the standard deviation of the assay. The LEC in turn indicates the degree of ISRE activation on transfer of a defined amount of PBMC culture medium. Recombinant interferon α-2a (Roferon-A) was used as a standard control compound.

| Human TLR 8 (LEC) (human TLR8) | Human TLR 7 (LEC) (human TLR7) | Compound | minimal effective concentration [1] |
| --- | --- | --- | --- |
| 1.6 µM | 5.2 µM | CCC[C@@H](CCO)Nc1nc(N)nc2c(C)csc12 [Compound 16] | 0.7 µM |
| 2.6 µM | 2.7 µM | CCCC[C@@H](CO)Nc1nc(N)nc2cc(C(C)(C)C)sc12 [Compound 23] |  |
| 0.3 µM | 3.7 µM | CCCC[C@@H](CO)Nc1nc(N)nc2c(C)csc12 [Compound 17] | 0.4 µM |
| 0.2 µM | 2.9 µM | CCCC[C@@H](CO)Nc1nc(N)nc2cc(C)sc12 [Compound 22] |  |
| 1.6 µM | 3.9 µM | CCCC[C@@H](CCO)Nc1nc(N)nc2c(C)csc12 [Compound 19] | 0.6 µM |
| 7.2 µM | >25 µM | CCC[C@H](CO)Nc1nc(N)nc2ccsc12 [Compound 12] | 21 µM |
| 1.2 µM | 1.2 µM | CCCCNc1nc(N)nc2cc(C(C)(C)C)sc12 [Compound 3] | 0.4 µM |
| 0.5 µM | 1.0 µM | CCCCNc1nc(N)nc2cc(C)sc12 [Compound 1] | 0.1 µM |
| 0.8 µM | >25 µM | CCCC[C@H](CO)Nc1nc(N)nc2c(C)csc12 [Compound 18] | 1.7 µM |
| 3.5 µM | >25 µM | CCC[C@H](Nc1nc(N)nc2c(C)csc12)C(=O)OC [Compound 15] | 2.6 µM |
| 0.2 µM | 2.7 µM | CCC[C@@H](CO)Nc1nc(N)nc2ccsc12 [Compound 5] | 0.4 µM |
| 0.03 µM | 0.5 µM | CCCC[C@@H](CO)Nc1nc(N)nc2ccsc12 [Compound 4] | 0.04 µM |
| 0.2 µM | 12 µM | CCC[C@@H](CO)Nc1nc(N)nc2c(C)csc12 [Compound 13] | 0.6 µM |
| 6.9 µM | >25 µM | CCCC(C)Nc1nc(N)nc2cc(C)sc12 (stereo not drawn) [Compound 20] | 10.1 µM |
| 0.6 µM | 10.4 µM | CCCC[C@H](CO)Nc1nc(N)nc2cc(C)sc12 [Compound 21] |  |
| 2.5 µM | 3.3 µM | CCCC(C)Nc1nc(N)nc2ccsc12 (stereo not drawn) [Compound 9] | 3.8 µM |
| 2.7 µM | 6.1 µM | CCC[C@H](Nc1nc(N)nc2ccsc12)C(=O)OC [Compound 10] | 0.8 µM |
| 1.9 µM | 6.8 µM | CCCCCNc1nc(N)nc2c(C)csc12 [Compound 14] | 3.2 µM |
| 0.5 µM | >25 µM | CCCC[C@H](CO)Nc1nc(N)nc2ccsc12 [Compound 6] | 0.6 µM |
| 0.7 µM | 1.2 µM | CCCC[C@@H](CCO)Nc1nc(N)nc2ccsc12 [Compound 8] | 0.3 µM |
| 3.9 µM | 2.1 µM | CCCCCNc1nc(N)nc2ccsc12 [Compound 11] | 1.2 µM |
| 1.0 µM | 2.2 µM | CCCCNc1nc(N)nc2c(C)csc12 [Compound 2] | 0.6 µM |
| 0.7 µM | 1.1 µM | CCCCNc1nc(N)nc2ccsc12 [Compound 7] | 0.3 µM |
